Test results: EP3383875B1, “3-PYRIMIDINYL PYRROLO [2,3-B] PYRIDINE AS ANTICANCER AGENTS AND THE PROCESS FOR THE PREPARATION THEREOF” (Council Of Scientific & Industrial Research, priority 2015, dated 2017)
Where two headings read alike, the source gives them in different places.

Legend:
CDK-2/cyclin A = CDK-2/cyclin A (Homo sapiens, UniProt P24941); assay: CDK inhibition assay, CDK-2/cyclin A against Histone HI, 33P-ATP; format: biochemical; details: at 500 nM
Procedure, shortened: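 CDK-2/cyclin A (5-20 mU) phosphorylating Histone HI (1 mg/ml) in 50 mM Hepes pH 7.5, 100 mM NaCl, 10 mM Mg acetate, 0.02 mM [33P-γ-ATP], 30 min at room temperature. Stopped with orthophosphoric acid, captured on P81 filters for radiometric readout.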

CDK-9/Cyclin T1 = CDK-9/Cyclin T1 (Homo sapiens, UniProt P50750); assay: CDK inhibition assay, CDK-9/Cyclin T1 against substrate peptide, 33P-ATP; format: biochemical; details: at 500 nM
Sequence of CDK-9/Cyclin T1 (P50750 whole entry): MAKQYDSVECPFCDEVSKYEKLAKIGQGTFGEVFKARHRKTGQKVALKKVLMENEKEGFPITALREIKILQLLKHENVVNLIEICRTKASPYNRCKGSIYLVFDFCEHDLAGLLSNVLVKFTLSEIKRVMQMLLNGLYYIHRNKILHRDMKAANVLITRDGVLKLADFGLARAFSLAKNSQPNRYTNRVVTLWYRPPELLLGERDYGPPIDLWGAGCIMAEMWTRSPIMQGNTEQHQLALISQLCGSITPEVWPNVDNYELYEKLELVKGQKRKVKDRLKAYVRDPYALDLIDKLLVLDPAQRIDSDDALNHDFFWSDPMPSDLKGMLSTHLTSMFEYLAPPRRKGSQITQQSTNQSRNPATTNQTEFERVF
Sequence of CDK-9/Cyclin T1 (O60563 whole entry partner): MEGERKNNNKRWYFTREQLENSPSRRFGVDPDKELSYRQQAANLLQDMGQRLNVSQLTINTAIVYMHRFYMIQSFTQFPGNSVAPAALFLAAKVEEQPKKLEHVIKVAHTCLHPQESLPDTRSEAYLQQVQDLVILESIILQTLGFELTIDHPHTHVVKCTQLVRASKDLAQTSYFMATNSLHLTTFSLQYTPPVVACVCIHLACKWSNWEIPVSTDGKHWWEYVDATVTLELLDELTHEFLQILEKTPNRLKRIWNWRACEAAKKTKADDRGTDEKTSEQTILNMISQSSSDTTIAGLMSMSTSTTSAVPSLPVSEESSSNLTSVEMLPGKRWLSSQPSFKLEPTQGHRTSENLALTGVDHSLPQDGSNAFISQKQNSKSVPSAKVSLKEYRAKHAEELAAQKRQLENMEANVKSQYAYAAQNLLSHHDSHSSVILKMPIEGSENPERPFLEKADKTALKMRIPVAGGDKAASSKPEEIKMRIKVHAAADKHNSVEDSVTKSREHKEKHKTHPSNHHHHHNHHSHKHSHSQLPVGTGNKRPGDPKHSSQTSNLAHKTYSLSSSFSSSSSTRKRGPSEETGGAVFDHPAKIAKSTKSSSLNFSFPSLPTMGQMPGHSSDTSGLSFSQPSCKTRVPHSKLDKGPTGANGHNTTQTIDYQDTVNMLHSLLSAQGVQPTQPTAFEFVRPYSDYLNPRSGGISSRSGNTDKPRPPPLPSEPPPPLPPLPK
Experimental: (50-1000 cpm/pmole) and incubated for 30 min at room temperature. Assays were stopped by addition of 5 µl of 0.5 M (3%) orthophosphoric acid and then harvested onto P81 Unifilter plates with a wash buffer of 50 mM orthophosphoric acid.

MCF-7 = assay: MTT assay on cancer cell line MCF-7; format: cell-based, Human; details: Homo sapiens
Experimental: (§1) Cell culture, growth conditions and treatments. […] Different molecules were dissolved in DMSO and were delivered to cell cultures in complete medium.

PC-3 = assay: MTT assay on cancer cell line PC-3; format: cell-based, human; details: Homo sapiens
Experimental: as §1

MDA-MB435 = assay: MTT assay on cancer cell line MDA-MB435; format: cell-based, Human; details: Homo sapiens, MDA-MB-435
Experimental: as §1

HCT-116 = assay: MTT assay on cancer cell line HCT-116; format: cell-based, human; details: Homo sapiens
Experimental: as §1

SHSY-5Y = assay: MTT assay on cancer cell line SHSY-5Y; format: cell-based, human; details: Homo sapiens, SH-SY5Y
Experimental: as §1

[1] = Table-7, read-out: In vitro CDK2 % of inhibition
[2] = read-out: inhibition against CDK2
[3] = Table-7, read-out: In vitro CDK9 % of inhibition
[4] = read-out: inhibition against CDK9
[5] = MCF7, MCF-7, Table 9 (for reference), read-out: In vitro cell inhibition, % of inhibition, MCF-7
[6] = MCF7, read-out: inhibition against MCF-7 cell lines
[7] = Table 9 (for reference), read-out: In vitro cell inhibition, % of inhibition, PC-3
[8] = MDA-MB435, at 10µM, Table 9 (for reference), read-out: In vitro cell inhibition, % of inhibition, MDA-MB435
[9] = at 10µM, Table 9 (for reference), read-out: In vitro cell inhibition, % of inhibition, HCT-116
[10] = SHSY-5Y, Table 9 (for reference), read-out: In vitro cell inhibition, % of inhibition, SHSY-5Y
[11] = read-out: inhibition against SHSY-5Y cell lines
[12] = Table-6, read-out: In vitro CDK2 % of inhibition
[13] = Table-6, read-out: In vitro CDK9 % of inhibition
[14] = MCF7, MCF-7, Table 8, read-out: In vitro cell inhibition, % of inhibition, MCF-7
[15] = Table 8, read-out: In vitro cell inhibition, % of inhibition, PC-3
[16] = read-out: inhibition against PC-3 cell lines
[17] = MDA-MB435, at 10µM, Table 8, read-out: In vitro cell inhibition, % of inhibition, MDA-MB435
[18] = at 10 µM, read-out: inhibition against MDAMB-435 cell lines
[19] = at 10µM, Table 8, read-out: In vitro cell inhibition, % of inhibition, HCT-116
[20] = at 10 µM, read-out: inhibition against HCT-116 cell lines
[21] = SHSY-5Y, Table 8, read-out: In vitro cell inhibition, % of inhibition, SHSY-5Y

| SMILES | inhibition at 0.5 µM (CDK-2/cyclin A; [2]) [%] | inhibition at 0.5 µM (CDK-9/Cyclin T1; [4]) [%] | inhibition at 10 µM (MCF-7; [6]) [%] | inhibition at 10 µM (SHSY-5Y; [11]) [%] | inhibition at 0.5 µM (CDK-2/cyclin A; [12]) [%] | inhibition at 0.5 µM (CDK-9/Cyclin T1; [13]) [%] | inhibition at 10 µM (MCF-7; [14]) [%] | inhibition at 10 µM (PC-3; [15]) [%] | inhibition at 10 µM (PC-3; [16]) [%] | inhibition at 10 µM (MDA-MB435; [17]) [%] | inhibition at 10 µM (MDA-MB435; [18]) [%] | inhibition at 10 µM (HCT-116; [19]) [%] | inhibition at 10 µM (HCT-116; [20]) [%] | inhibition at 10 µM (SHSY-5Y; [21]) [%] | further results |
| --- | --- | --- | --- | --- | --- | --- | --- | --- | --- | --- | --- | --- | --- | --- | --- |
| CSc1ccccc1-c1cnc2[nH]cc(-c3ccnc(N)n3)c2c1 [1C9, 4-(5-(2-(methylthio)phenyl)-1H-pyrrolo[2,3-b]pyridin-3-yl)pyrimidin-2-amine] | > 70 | > 70 | > 70 | > 70 | – | – | – | – | – | – | – | – | – | – | inhibition at 0.5 µM (CDK-2/cyclin A; [1]): > 70%; inhibition at 0.5 µM (CDK-9/Cyclin T1; [3]): > 70%; inhibition at 10 µM (MCF-7; [5]): > 70%; inhibition at 10 µM (PC-3; [7]): > 70%; inhibition at 10 µM (MDA-MB435; [8]): > 70%; inhibition at 10 µM (HCT-116; [9]): > 50%; inhibition at 10 µM (SHSY-5Y; [10]): > 70% |
| Clc1ccc(-c2cnc3[nH]cc(-c4ccnc(NC5CC5)n4)c3c2)cc1 [1A12, 4-(5-(4-chlorophenyl)-1H-pyrrolo[2,3-b]pyridin-3-yl)-N-cyclopropylpyrimidin-2-amine] | > 70 | > 70 | > 70 | > 70 | > 70 | > 70 | > 70 | > 50 | > 50 | > 70 | > 70 | > 70 | > 70 | > 70 | – |
| COc1ccc(-c2cnc3[nH]cc(-c4ccnc(NC5CC5)n4)c3c2)cc1 [1A11, N-cyclopropyl-4-(5-(4-methoxyphenyl)-1H-pyrrolo[2,3-b]pyridin-3-yl)pyrimidin-2-amine] | > 70 | > 70 | > 70 | > 70 | > 70 | > 70 | > 70 | > 50 | > 50 | > 70 | > 70 | > 70 | > 70 | > 70 | – |
| c1ccc2c(-c3cnc4[nH]cc(-c5ccnc(NC6CC6)n5)c4c3)cccc2c1 [1A14, N-cyclopropyl-4-(5-(naphthalen-1-yl)-1H-pyrrolo[2,3-b]pyridin-3-yl)pyrimidin-2-amine] | > 50 | > 50 | > 70 | > 70 | > 50 | > 50 | > 70 | > 70 | – | > 70 | > 70 | > 70 | > 70 | > 70 | – |
| c1cc(-c2c[nH]c3ncc(-c4ccoc4)cc23)nc(NC2CC2)n1 [1A16, N-cyclopropyl-4-(5-(furan-3-yl)-1H-pyrrolo[2,3-b]pyridin-3-yl)pyrimidin-2-amine] | > 70 | > 70 | > 50 | – | > 70 | > 70 | > 50 | > 70 | – | > 70 | – | > 70 | – | > 50 | – |
| Fc1ccc(-c2cnc3[nH]cc(-c4ccnc(NC5CC5)n4)c3c2)cc1 [1A2, N-cyclopropyl-4-(5-(4-fluorophenyl)-1H-pyrrolo[2,3-b]pyridin-3-yl)pyrimidin-2-amine] | > 70 | > 70 | > 70 | > 70 | > 70 | > 70 | > 70 | > 50 | > 50 | > 70 | > 70 | > 70 | > 70 | > 70 | – |
| Nc1nccc(-c2c[nH]c3ncc(-c4cccc5ccccc45)cc23)n1 [1C14, 4-(5-(naphthalen-1-yl)-1H-pyrrolo[2,3-b]pyridin-3-yl)pyrimidin-2-amine] | > 70 | > 70 | > 50 | – | – | – | – | – | – | – | – | – | – | – | inhibition at 0.5 µM (CDK-2/cyclin A; [1]): > 70%; inhibition at 0.5 µM (CDK-9/Cyclin T1; [3]): > 70%; inhibition at 10 µM (MCF-7; [5]): > 50%; inhibition at 10 µM (PC-3; [7]): > 70%; inhibition at 10 µM (MDA-MB435; [8]): > 50%; inhibition at 10 µM (HCT-116; [9]): > 70%; inhibition at 10 µM (SHSY-5Y; [10]): > 50% |
